Experimental findings from US10287328B2, “Treatment of diabetes, toll-like receptor 4 modulators and methods for using the same” (KeMyth Biotech Co., Ltd., priority 2016, dated 2019) are described below.

Series [1] can be described thus: Serum insulin level (sandwich ELISA) in HFD-induced, STZ-injected type 2 diabetic rats. The format is in vivo, Sprague-Dawley rats. The note with it: STZ-injected HFD-fed rats, 2 mg/kg/3 days i.p. for 30 days, compared to STZ+vehicle. The protocol:
The Sprague-Dawley rats were allocated to two dietary regimens by feeding either normal or HFD ad libitum, for the initial period of 2 weeks. After 2 weeks of dietary manipulation, the group of rats fed HFD were injected intraperitoneally (i.p.) with a low dose of STZ (35 mg/kg b.w.), while the respective control rats were given vehicle citrate buffer (pH 4.5) in a dose volume of 1 mL/kg, i.p. Seven days after STZ injection, rats were screened for blood glucose levels. Overnight fasted (10-12 hours) animals were given glucose (3 g/kg b.w.) by gastric intubation. After 2 hours of oral administration, blood samples were taken from lateral tail vein, left to coagulate and centrifuged; then serum glucose concentration was measured. Rats having serum glucose ≥200 mg/dL after 2 hours of glucose intake were considered diabetic and selected for further pharmacological studies. The rats were allowed to continue to feed on their respective diets until the end of the study (16). […]
The levels of insulin, sICAM-1, sVCAM-1, and E-selectin in serum were determined by using sandwich ELISA (R&D) according to manufacturer's protocols.
(An ELISA detects its analyte on a solid surface through an enzyme-linked reagent.)

Series [2] concerns HUVEC. Nature of the series: Low shear stress experiment on HUVEC (morphology, F-actin immunofluorescence). The following applies: peptide pre-treatment 1 hour (100 mM), shear stress 4 dyn/cm^2 for 6 hours. The format is cell-based, human. Here is the method:
HUVEC was purchased by ScienCell Research Laboratories (CA, USA). The pellet was resuspended in M199 culture medium supplemented with penicillin/streptomycin and 20% fetal bovine serum (FBS), after which the cells were plated onto cell culture dishes. ECs were grown in Petri dishes for three days and then seeded onto glass slides pre-coated with rat tail type I collagen. Secondary cultures were used for the experiments within two days after reaching confluence (˜1-2×10^5 cells/cm^2).^12
HUVECs was mounted on a slide in a parallel-plate flow chamber, which was connected to a perfusion loop system (15). The system was kept in a constant-temperature, maintained at pH 7.4 by gassing with 5% CO2. The osmolality of the medium was kept in the range 285-295 mOsm/kg during perfusion. The flow channel width (w) was 1 cm and the channel height (h) was 0.025 cm. […]
After exposing to shear stress with or without peptide treatment, HUVECs were washed, fixed with 4% formaldehyde, and permeabilized by 1% Triton X-100 in PBS at 37° C. for 30 min. […] Intracytoplasmic F-actin immunofluorescence was detected by staining with phalloidin-fluorescein isothiocyanate (FITC) (1:1000 eBioscience) for 1 hr at room temperature, and cell nuclear stained with 4′,6-diamidino-2-phenylindole (DAPI) for 10 min at room temperature. Fluorescent cells were photographed by a fluorescence microscope with CCD (OLYMPUS).

The test system of series [3] is PMNs isolated from TLR4(−/−) mice C3H/HeJ. The series is described as follows: LPS-induced PMN transendothelial migration, PMNs from TLR4(-/-) C3H/HeJ mice. The format is cell-based. The note with it: LPS 1 μg/ml, HUVEC monolayer Transwell. The protocol: To obtain mice neutrophils from TLR4-deficient [TLR4(−/−)] C3H/HeJ mice and wild type C3H/HeN mice, inflammation was induced by 0.1 ml of uric acid solution into the peritoneal cavity of the mouse. The uric acid solution (noncrystalline form) was prepared by mixing with saline (10% [wt/vol]) and sonicated for 10 min. Immediately before inoculation, the milky white precipitated uric acid solution was shaken vigorously. Peritoneal exudate cells were harvested 4, 18, or 24 h after injection by two lavages of the peritoneal cavity with 5 ml of cold phosphate-buffered saline (PBS; total volume, 10 ml). Uric acid-induced peritoneal cells (UAPMN) were washed by centrifugation at 200×g for 10 min at 4° C. […] The numbers and populations of peritoneal exudate cells were determined by staining the nuclei with Turk reagent and by cytospin centrifugation followed by May-Grünwald-Giemsa staining, respectively. […] Viability of the isolated neutrophils exceeded 95% as determined by trypan blue exclusion. […]
Neutrophils from human were isolated blood that was drawn in a syringe containing preservative-free heparin (20 U/ml final), and mixed with an equal volume of PBS containing 3% dextran and then incubated for 20 min at room temperature. […] The viability of the isolated neutrophils exceeded 95%, as determined by Trypan blue exclusion. […]

Series [4] relates to HUVEC. The following applies: treated for 1, 4 and 7 hours (FIG. 16).

In the case of “QDLTAHFTTSIPLKGNVRNLSVKIRECTGLAWEWWRTVYEKTDLPLVRKRTISIWGTTLYPQVEDKVEND [C70PLY4]”, the blood insulin levels entry in series [1] is “increased blood insulin levels”. Further, in the series with HUVEC [2], the “low shear stress induced cytoskeleton (F-actin) remodeling” value is on record as “almost block” and the “low shear stress induced morphological change” value was “almost block”. In series [3], the “PMNs migration, TLR4(−/−) mice model (FIG. 10)” value is “this phenomenon did not occur”. Besides, the “cell morphology of HUVEC” value in the series on HUVEC [4] was “did not affect the cell morphology”.
